This is an account of results in ChEMBL document CHEMBL1201862, “PubChem BioAssay data set” (2004).

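Cultured in 96-well plates, cells were exposed to test compound for 48 hours across five concentrations. At the GI50, growth is halved.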 The source made the active and inactive calls. Rule as the data show it: active = GI50 up to about 1.1 µM and inactive = higher.

Among the test systems are 786-0; A498; A549; ACHN; DU-145; HCC 2998; HCT-15; K562; MDA-MB-435; NCI-H23; NCI-H460; OVCAR-3; OVCAR-5; RPMI-8226; RXF 393; SF-539; SNB-75; TK-10; UACC-257; UACC-62.
What all share (assay): growth of human tumour cells (NCI), 48 h

For the compound `O=[N+]([O-])C(=C(\Cl)NCCO)/C(Cl)=C(/Cl)Br`, the GI50 in the test on 786-0 is 1.19 µM (inactive); in the test with A498, 4.66 µM (inactive); in the test with A549 it was 7.91 µM (inactive); in the test with ACHN, 2.75 µM (inactive); with DU-145, 7.74 µM (inactive); in the test with HCC 2998, 3.33 µM (inactive). Also, the GI50 in the test with HCT-15 is 1.32 µM; in the test on K562, 0.665 µM (active); with MDA-MB-435, 1.3 µM (inactive); in the test with NCI-H23, 2.9 µM (inactive); in the test on NCI-H460, 2.7 µM (inactive); with OVCAR-3, 1.32 µM (inactive). The GI50 is 4 µM (inactive) in the test on OVCAR-5; 1.48 µM (inactive) in the test on RPMI-8226; 2.6 µM (inactive) in the test with RXF 393; 2.34 µM (inactive) in the test on SF-539; 3.37 µM (inactive) with SNB-75; 2.16 µM (inactive) in the test on TK-10. Moreover, the GI50 in the test on UACC-257 was 1.87 µM (inactive); in the test on UACC-62 it was 1.75 µM (inactive).

With `Cc1cc(=O)oc2cc(OC(=O)Nc3ccccc3)ccc12`, the GI50 in the test on 786-0 was > 100 µM (inactive); in the test with A498, 64.4 µM (inactive); in the test with A549, 62.1 µM (inactive); with ACHN, 74 µM (inactive); in the test with DU-145, 76.9 µM (inactive); with HCC 2998 it was 84.3 µM (inactive). Moreover, the GI50 is 50.9 µM in the test with HCT-15; 35.6 µM (inactive) in the test with K562; > 100 µM (inactive) in the test with MDA-MB-435; 69.5 µM (inactive) in the test on NCI-H23; 84.7 µM (inactive) with NCI-H460; 61 µM (inactive) with OVCAR-3. The GI50 with OVCAR-5 was > 100 µM (inactive); with RPMI-8226, 25.4 µM (inactive); with RXF 393, 92.7 µM (inactive); with SF-539 it was > 100 µM (inactive); in the test with SNB-75, > 100 µM (inactive); in the test with TK-10, > 100 µM (inactive). The GI50 with UACC-257 is > 100 µM (inactive); with UACC-62 it was 41.2 µM (inactive).

As for `C/C(=N/CC(=O)O)c1ccccc1`, the GI50 with 786-0 was > 100 µM (inactive); in the test with A498, > 100 µM (inactive); with A549, > 100 µM (inactive); with ACHN it was > 100 µM (inactive); in the test with DU-145, > 100 µM (inactive); with HCC 2998, 39.8 µM (inactive). For the same compound, the GI50 with HCT-15 is more than 100 µM; in the test with K562, > 100 µM (inactive); in the test on MDA-MB-435 it was > 100 µM (inactive); in the test on NCI-H23, 92.5 µM (inactive); in the test on NCI-H460, > 100 µM (inactive); with OVCAR-3, > 100 µM (inactive). Also, the GI50 with OVCAR-5, with RPMI-8226, in the test on RXF 393, with SF-539, in the test on SNB-75 and in the test with TK-10 was > 100 µM (inactive) throughout. Besides, the GI50 in the test on UACC-257 and in the test on UACC-62 was > 100 µM (inactive) each time.

Take `C[C@H](CCC(=O)O)[C@H]1CC[C@H]2[C@@H]3[C@H](O)C[C@@H]4C[C@H](O)CC[C@]4(C)[C@H]3C[C@H](O)[C@]12C`: the GI50 in the test on 786-0, in the test on A498, in the test on A549, in the test with ACHN, with DU-145 and with HCC 2998 was > 100 µM (inactive) in each case. The GI50 is more than 100 µM in the test with HCT-15; > 100 µM (inactive) in the test on K562; > 100 µM (inactive) in the test on MDA-MB-435; > 100 µM (inactive) in the test on NCI-H23; > 100 µM (inactive) in the test with NCI-H460; > 100 µM (inactive) in the test on OVCAR-3. Also, the GI50 with OVCAR-5, with RPMI-8226, in the test on RXF 393, in the test on SF-539, in the test on SNB-75 and in the test with TK-10 was > 100 µM (inactive) throughout. Moreover, the GI50 in the test on UACC-257 and with UACC-62 was > 100 µM (inactive) each time.
